Where a name gives a salt, the structure may show the parent alone.
What was measured:
[1] = test system: S. pneumoniae D39; assay type: cell-based, Streptococcus pneumoniae; conditions: for SC (stationary concentration, Δlog = 0), S. pneumoniae D39 / EC50 / Δlogmax, S. pneumoniae D39: 1 h treatment, Hill fit; for SC (stationary concentration, Δlog = 0), S. pneumoniae D39: C + Y medium, added at T1, 10^7–10^8 CFU/mL, CFU vs untreated controls; for EC50 / Δlogmax, S. pneumoniae D39: C + Y; for EC50: read-out: K 1/2 (concentration yielding half-variation in Δlogmax), S. pneumoniae D39 (converted); for Δlogmax, S. pneumoniae D39: maximum variation in viability; for Reduction of the number of viable cells at 3 × SC, S. pneumoniae: after 1-h incubation at 3 × SC values
Text: First, the substitution of the fatty amino chain of 18 carbon atoms of the reference compound DICAM 2 by either an OMe group (methylated tripeptide DICAM 5) or an amine with 12 carbon atoms (DICAM 9) abolished the activity against all three pathogens. However, the activity remained intact when the chain of the fatty amine of prototypes DICAMs 1 and 4 was two carbon atoms shorter (DICAM 10 and DICAM 12, respectively), based on S. pneumoniae and S. pyogenes results. […] Third, Glu and Ala were tolerated as C-terminal residues of the lipotripeptides. […] In addition, deletion of the C-terminal Glu (DICAM 13) eradicated the activity against S. pneumoniae and S. aureus. However, a delay and small inhibition of S. pyogenes ^T growth was still observed. Fourth, Glu (DICAMs 19 and 20) and Orn (DICAMs 21 and 22) were tolerated as N-terminal residues, with the impact of these modifications being pathogen-dependent. […] SAR studies continued by measuring the dose dependence of DICAM’s activity at T1 with all the compounds found to be active against S. pyogenes or S. aureus in the initial screening, and all but one compound in the case of S. pneumoniae. The OD values of bacterial cultures were monitored after DICAM addition, and the decrease in the number of viable bacteria was measured relative to controls (Figures 4–6; Supplementary Figure S1). As antibacterial efficacy may decline with the bacterium dose in the inoculum ([Belley et al., 2009]; [Udekwu et al., 2009]; [Luca et al., 2013]), the assays were performed using the bacterial concentrations necessary for the fluorescence experiments in Section 2.3 (10^7–10^8 CFU/mL). At these high bacterial densities, MICs were determined as the DICAM concentration at which bacteria neither grow nor are killed (the stationary concentration (SC)), following [Udekwu et al., 2009]. By fitting the logarithmic plot of cell viability decrease vs. the DICAM dose to a Hill function (see Section 5.2.3.1) we were able to determine the maximum variation in viability (Δlogmax = ∆log f - ∆log 0, where ∆log f and ∆log 0 are the upper and lower limits of Δlog) in the assay conditions, the SC concentration (Δlog = 0), the dose required for half-variation in Δlogmax (K 1/2), and the cooperativity of the antimicrobial effect (N H).
(§1) Susceptibility to DICAMs was first tested by growth-inhibition assays at 50 and 100 μM of compound. Briefly, working solutions at 5 mM or 10 mM DICAM in pure DMSO were prepared from DICAM stocks (40 mM in pure DMSO) and diluted with fresh culture medium to 5× the desired final concentration. Aliquots (50 µL) of these solutions were added to 200 µL of bacterium cultures grown to early exponential phase (OD550/600 c. a. 0.15–0.2 in sterile 96-well plates (Cultek, Spain). Incubation continued for 10 h at 37°C and turbidity (OD550/600) values were measured every 20 min to monitor growth and lysis, using a VersaMax microplate reader (Molecular Devices; United Kingdom). Next, the activity dependence on DICAM’s dose was examined by measuring the turbidity of treated and untreated cultures as a function of time. Also, the decay of bacterial viability (CFU/mL) at selected times of treatment was assessed by colony counting on LB-agar or TSA plates after overnight incubation at 37°C. By default, 10 μL of 10-fold serially diluted samples were plated, which set the lower detection limit at 10^2 CFU/mL (10^1 CFU/mL when 100 μL of the undiluted sample was seeded).
As antibacterial efficacy may decline with the bacterium dose in the inoculum ([Belley et al., 2009]; [Udekwu et al., 2009]; [Luca et al., 2013]), activity assays were performed using the bacterial concentrations required for the fluorescence experiments in Section 2.3 (10^7–10^8 CFU/mL). At such bacterial densities, MICs were determined as the DICAM concentration at which bacteria neither grow nor are killed under assay conditions (the stationary concentration (SC)), as indicated in Section 2.2. […]

[2] = test system: Streptococcus pyogenes T; assay: Growth inhibition screening of planktonic cultures (OD550/600); assay type: cell-based; set-up: key: (+++) full inhibition; (++) partial inhibition; (+) growth retardation; -: (−) no effect; conditions: S. pyogenes T, 50 and 100 μM compound added at T1, OD550/600 followed 10 h, 37°C
Method: Planktonic cultures of selected pathogens (S. pneumoniae R6, S. pyogenes ^T, Staphylococcus aureus ^T, Escherichia coli DH10B, and Pseudomonas aeruginosa PAO1 strains) on early logarithmic-phase (T1) were assayed for their sensitivity to a broad range of DICAM compounds, as indicated in Table 1. Their bacteriostatic or lytic effect was first tested by measuring the variation of the OD550/600 as a function of time (10 h) when (50/100 μM) DICAMs were added, compared to untreated controls. The screening results, summarized in Table 1, evidenced that a potent antimicrobial activity may exist even when the negative charge of the peptide was higher than in the prototype compounds.
as §1

[3] = RP-HPLC retention time used to determine hydrophobicity; assay type: physicochemical; conditions: analytical RP-HPLC, C18 Sunfire column (4.6 mm × 150 mm, 3.5 μm); A = 0.05% TFA in water, B = acetonitrile; 10% to 100% B in 20 min then isocratic 100% B 10 min; 217 and 254 nm; used as measure of hydrophobicity
Method: The purity of the lipopeptides was checked by analytical RP-HPLC on an Agilent Infinity instrument equipped with a Diode Array and a C18 Sunfire column (4.6 mm × 150 mm, 3.5 μm). As mobile phase A:B mixtures were used, where A = 0.05% TFA in water and B = acetonitrile. The samples were analyzed at 217 and 254 nm in a gradient from 10% of B to 100% of B in 20 min followed by isocratic 100% of B in 10 min.
Retention times were used to determine the hydrophobicity ([Neubauer et al., 2020]). HRMS (EI+) was carried out in an Agilent 6,520 Accurate-Mass Q-TOF LC/MS spectrometer using water/acetonitrile mixtures. Results can be found in Supplementary Section S3, S4.

[4] = S. pneumoniae D39, 50 μM (Supplementary Figure S1F), C+Y, 37°C
[5] = S. pneumoniae D39, within 60 min

CCCCCCCCCCCCCCCCCCNC(=O)[C@H](CCC(=O)O)NC(=O)[C@H]1CCCN1C(=O)[C@H](CC(N)=O)NC(=O)OCc1ccccc1 [DICAM 1, Cbz-Asn- Pro -Glu-NH-C18H37]
SC (stationary concentration, Δlog = 0), S. pneumoniae D39 ([1]; 37°C): 2 ± 0.2 µM
EC50 ([1]; 37°C): 3.8 ± 0.2 µM
Time required to reduce the viability by 99.99% [1, 4]: 2 to 2.5 h
Viability decrease in 1 h [1, 4]: ≈ 90%
Δlogmax, S. pneumoniae D39 ([1]; 37°C): 2.05 ± 0.03 logarithmic units
Growth halt or lysis (50/100 μM), Spy T [2]: +++
Retention time [3]: 21.41 min

CCCCCCCCCCCCCCCCCCNC(=O)[C@H](CCC(=O)O)NC(=O)[C@H]1CCCN1C(=O)[C@@H](N)CC(N)=O [DICAM 2, Asn- Pro -Glu-NH-C18H37 ·HCl]
SC (stationary concentration, Δlog = 0), S. pneumoniae D39 ([1]; 37°C): 4.1 ± 0.6 µM
EC50 ([1]; 37°C): 10.7 ± 0.4 µM
Reduction of the number of viable cells at saturating doses [1, 5]: ≥ 4.6 log-units
Reduction of the number of viable cells at 3 × SC, S. pneumoniae [1]: 99.2%–99.8
Δlogmax, S. pneumoniae D39 ([1]; 37°C): 4.6 ± 0.1 logarithmic units
Growth halt or lysis (50/100 μM), Spy T [2]: +++
Retention time [3]: 12.14 min

CCCCCCCCCCCCCCCCCCNC(=O)[C@H](CCC(=O)O)NC(=O)[C@H]1CCCN1C(=O)[C@H](C)NC(=O)OCc1ccccc1 [DICAM 3, Cbz-Ala- Pro -Glu-NH-C18H37]
SC (stationary concentration, Δlog = 0), S. pneumoniae D39 ([1]; 37°C): 6.5 ± 0.5 µM
EC50 ([1]; 37°C): 7.8 ± 0.4 µM
Time required to reduce the viability by 99.99% [1, 4]: 2 to 2.5 h
Viability decrease in 1 h [1, 4]: ≈ 90%
Δlogmax, S. pneumoniae D39 ([1]; 37°C): 1.51 ± 0.04 logarithmic units
Growth halt or lysis (50/100 μM), Spy T [2]: +++
Retention time [3]: 21.42 min

CCCCCCCCCCCCCCCCCCNC(=O)[C@H](CCC(=O)O)NC(=O)[C@H]1CCCN1C(=O)[C@H](C)N [DICAM 4, Ala- Pro -Glu-NH-C18H37 ·HCl]
SC (stationary concentration, Δlog = 0), S. pneumoniae D39 ([1]; 37°C): 4 ± 1.5 µM
EC50 ([1]; 37°C): 13 ± 2 µM
Cell killing after 60 min of incubation [1, 4]: ≥ 99.999%
Time to nearly sterilize the culture ([1]; S. pneumoniae D39, 50 μM, C+Y, 37°C, legend of Supplementary Figure S1F): less than 1 h
Reduction of the number of viable cells at saturating doses [1, 5]: ≥ 4.6 log-units
Reduction of the number of viable cells at 3 × SC, S. pneumoniae [1]: 99.2%–99.8
Δlogmax, S. pneumoniae D39 ([1]; 37°C): 6.0 ± 0.4 logarithmic units
Growth halt or lysis (50/100 μM), Spy T [2]: +++
Retention time [3]: 19.24 min

CCCCCCCCCCCCCCCCNC(=O)[C@H](CCC(=O)O)NC(=O)[C@H]1CCCN1C(=O)[C@H](CC(N)=O)NC(=O)OCc1ccccc1 [DICAM 10, Cbz-Asn- Pro -Glu-NH-C16H33]
SC (stationary concentration, Δlog = 0), S. pneumoniae D39 ([1]; 37°C): 3.4 ± 0.5 µM
EC50 ([1]; 37°C): 6.5 ± 0.3 µM
Time required to reduce the viability by 99.99% [1, 4]: 2 to 2.5 h
Viability decrease in 1 h [1, 4]: ≈ 90%
Δlogmax, S. pneumoniae D39 ([1]; 37°C): 3.13 ± 0.06 logarithmic units
Growth halt or lysis (50/100 μM), Spy T [2]: +++
Retention time [3]: 18.23 min

CCCCCCCCCCCCCCCCCCNC(=O)[C@H](C)NC(=O)[C@H]1CCCN1C(=O)[C@H](C)N [DICAM 14, Ala- Pro -Ala-NH-C18H37 · HCl]
SC (stationary concentration, Δlog = 0), S. pneumoniae D39 ([1]; 37°C): ∼33 µM
Growth halt or lysis (50/100 μM), Spy T [2]: +++
Retention time [3]: 19.50 min

CCCCCCCCCCCCCCCCCCNC(=O)[C@H](CCC(=O)O)NC(=O)[C@H]1CCCN1C(=O)[C@H](CCC(=O)O)NC(=O)OCc1ccccc1 [DICAM 19, Cbz-Glu- Pro -Glu-NH-C18H37]
SC (stationary concentration, Δlog = 0), S. pneumoniae D39 ([1]; 37°C): 3.0 ± 0.8 µM
EC50 ([1]; 37°C): ~5 µM
Bacterial viability reduction at ≈ 5 μM ([1]; S. pneumoniae D39, within 60 min, ≈ 5 μM): > 99.5%
Reduction of the number of viable cells at 3 × SC, S. pneumoniae [1]: 99.2%–99.8
Δlogmax, S. pneumoniae D39 ([1]; 37°C): 3.0 ± 0.2 logarithmic units
Growth halt or lysis (50/100 μM), Spy T [2]: +++
Retention time [3]: 21.22 min

CCCCCCCCCCCCCCCCCCNC(=O)[C@H](CCC(=O)O)NC(=O)[C@H]1CCCN1C(=O)[C@@H](N)CCC(=O)O [DICAM 20, Glu- Pro -Glu-NH-C18H37 · HCl]
SC (stationary concentration, Δlog = 0), S. pneumoniae D39 ([1]; 37°C): 3.0 ± 0.7 µM
EC50 ([1]; 37°C): 4.4 ± 0.6 µM
Bacterial viability reduction at 10 μM ([1]; S. pneumoniae D39, within 60 min, 10 μM): > 99.5%
Reduction of the number of viable cells at 3 × SC, S. pneumoniae [1]: 99.2%–99.8
Δlogmax, S. pneumoniae D39 ([1]; 37°C): 3.0 ± 0.1 logarithmic units
Growth halt or lysis (50/100 μM), Spy T [2]: +++
Retention time [3]: 18.71 min

CCCCCCCCCCCCCCCCCCNC(=O)[C@H](CCC(=O)O)NC(=O)[C@H]1CCCN1C(=O)[C@H](CCCN)NC(=O)OCc1ccccc1 [DICAM 21, Cbz-Orn- Pro -Glu-NH-C18H37]
SC (stationary concentration, Δlog = 0), S. pneumoniae D39 ([1]; 37°C): 8 ± 1 µM
EC50 ([1]; 37°C): 9 ± 1 µM
Δlogmax, S. pneumoniae D39 ([1]; 37°C): 1.9 ± 0.1 logarithmic units
Growth halt or lysis (50/100 μM), Spy T [2]: +++
Retention time [3]: 19.70 min

CCCCCCCCCCCCCCCCCCNC(=O)[C@H](CCC(=O)O)NC(=O)[C@H]1CCCN1C(=O)[C@@H](N)CCCN [DICAM 22, Orn- Pro -Glu-NH-C18H37 · HCl]
SC (stationary concentration, Δlog = 0), S. pneumoniae D39 ([1]; 37°C): 20 ± 8 µM
EC50 ([1]; 37°C): 22 ± 8 µM
Δlogmax, S. pneumoniae D39 ([1]; 37°C): 1.4 ± 0.4 logarithmic units
Growth halt or lysis (50/100 μM), Spy T [2]: ++
Retention time [3]: 16.91 min

Reference: paper PMC11329928, “Design, synthesis and structure-activity relationship (SAR) studies of an unusual class of non-cationic fatty amine-tripeptide conjugates as novel synthetic antimicrobial agents” (Frontiers in Pharmacology, 2024)
